From patent publication US20220213052A1, “INHIBITORS OF RNA-BINDING PROTEINS, COMPOSITIONS THEREOF, AND THERAPEUTIC USES THEROF” (The University of North Carolina at Chapel Hill, priority 2019, published 2022)
Structures can show the parent of a compound that is named as a salt. Where two headings read alike, the source gives them in different places.

Tests used:
[1] = target: T1, full-length human HuR protein (Homo sapiens, UniProt Q15717); assay: FP assay of HuR-Msi1 ARE binding inhibition; conditions: HuR-Msi1 ARE interaction; read-out: HuR Ki via FP assay
T1 construct: full-length human HuR protein was produced by the KU COBRE-PSF Protein Purification Group; made in house
T1 sequence (Q15717 whole entry): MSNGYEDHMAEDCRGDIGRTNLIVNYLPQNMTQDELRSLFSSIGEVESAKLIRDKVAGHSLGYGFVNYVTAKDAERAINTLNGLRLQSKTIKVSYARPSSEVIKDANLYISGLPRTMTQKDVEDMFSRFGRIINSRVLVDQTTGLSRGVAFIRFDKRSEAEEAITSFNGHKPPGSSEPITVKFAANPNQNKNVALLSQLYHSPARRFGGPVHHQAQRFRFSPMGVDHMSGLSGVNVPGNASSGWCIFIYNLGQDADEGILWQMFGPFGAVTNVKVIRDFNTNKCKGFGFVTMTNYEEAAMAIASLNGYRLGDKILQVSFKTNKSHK
From the text: A fluorescence polarization (FP)-based binding assay was utilized to assess the inhibition of HuR protein interaction with the ARE site of Msi1 mRNA (“HuR-Msi1^ARE”) by compounds of interest. Briefly, full-length human HuR protein was produced by the KU COBRE-PSF Protein Purification Group and Bcl2, Msi1 and XIAP mRNA sequences (16 nt) were designed based on literature precedent^23,24,31,32. Fluorescein labeled RNAs were purchased from Dharmacon with the following sequences: Msi1 RNA: 5′-[…]-3′-fluorescein; Bcl-2 RNA: 5′-[…]-3′-fluorescein; XIAP RNA: 5′-[…] UGUC-3′-fluorescein, and a 16-nt degenerative RNA with 3′-fluorescein label was used as a negative control.
(§1) With the FP assay of HuR-Msi1ARE binding, the inhibition of the HuR-Msi1ARE interaction by various compounds of the present technology was assessed. Similar FP assays for Musashi 2 (Msi2) and for RNA-binding protein Lin-28 homolog B (LIN28B) were also performed on various compounds of the present technology. The results of such assays for HuR are provided in Table 1 alongside the compound structures as well as ID numbers for ease of reference; the results of such assays for Msi1, Msi2, and LIN28B are provided in Table 2.

[2] = tested on: triple-negative breast cancer cell line MDA-MB-231; assay: Cytotoxicity assay (WST-8), MDA-MB-231; assay type: cell-based; conditions: Homo sapiens, 96 h incubation
Protocol: The cytotoxicity of various compounds of the present technology in several cancer cell lines (pancreatic cancer cell line MIAPaCa-2, triple-negative breast cancer cell line MDA-MB-231, and colon cancer cell lines HCT116, HCT116 β/W, and RKO) was assessed by a cytotoxicity assay. Cells were seeded in 96-well culture plates (3,000-5,000 cells/well) and treated with titrated compounds in triplicate. After 96 h incubation, cell growth medium was removed and proliferation reagent WST-8 (Sigma) was added to each well and incubated at 37° C. for 1-3 h. Absorbance was then measured with a plate reader at 450 nm with correction at 650 nm. The results were expressed as the percentage of absorbance of treated wells versus that of vehicle control. IC50, the drug concentration causing 50% growth inhibition, was calculated via sigmoid curve fitting using GraphPad Prism 5.0. The results for those compounds tested against MIAPaCa-2 and MDA-MB-231 are provided in Table 1; the results for those compounds tested against colon cancer cell lines HCT116, HCT116 β/W, and RKO are provided in Table 3.

Msi1 = Msi1 (Homo sapiens, UniProt O43347); assay: Msi1 FP assay; assay type: binding
Sequence of Msi1 (O43347 whole entry, species assumed): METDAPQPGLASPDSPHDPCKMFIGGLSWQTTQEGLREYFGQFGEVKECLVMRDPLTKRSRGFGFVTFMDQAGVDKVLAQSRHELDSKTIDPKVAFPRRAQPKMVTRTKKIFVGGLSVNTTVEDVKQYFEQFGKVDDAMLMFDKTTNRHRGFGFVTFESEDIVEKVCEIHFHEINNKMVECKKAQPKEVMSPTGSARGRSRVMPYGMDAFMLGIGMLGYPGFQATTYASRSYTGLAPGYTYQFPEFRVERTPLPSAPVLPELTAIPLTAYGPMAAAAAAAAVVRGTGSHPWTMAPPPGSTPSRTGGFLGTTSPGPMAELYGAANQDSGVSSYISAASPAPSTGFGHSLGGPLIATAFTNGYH
Protocol: as §1

Musashi 2 (Msi2) = Musashi 2 (Msi2) (Homo sapiens, UniProt Q96DH6); assay: Msi2 FP assay; assay type: binding
Sequence of Musashi 2 (Msi2) (Q96DH6 whole entry, species assumed): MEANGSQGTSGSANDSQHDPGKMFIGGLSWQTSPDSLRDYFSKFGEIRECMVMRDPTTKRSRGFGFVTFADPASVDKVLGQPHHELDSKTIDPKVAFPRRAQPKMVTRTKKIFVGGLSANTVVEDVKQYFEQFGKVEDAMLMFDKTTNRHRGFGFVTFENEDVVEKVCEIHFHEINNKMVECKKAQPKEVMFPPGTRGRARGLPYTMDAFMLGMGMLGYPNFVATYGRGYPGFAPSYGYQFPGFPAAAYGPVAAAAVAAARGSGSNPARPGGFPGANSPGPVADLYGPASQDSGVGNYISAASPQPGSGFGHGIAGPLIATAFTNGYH
Protocol: as §1

[3] = target: T2, RNA-binding protein Lin-28 homolog B (LIN28B) (Homo sapiens, UniProt Q6ZN17); assay: LIN28B FP assay
T2 sequence (Q6ZN17 1-250): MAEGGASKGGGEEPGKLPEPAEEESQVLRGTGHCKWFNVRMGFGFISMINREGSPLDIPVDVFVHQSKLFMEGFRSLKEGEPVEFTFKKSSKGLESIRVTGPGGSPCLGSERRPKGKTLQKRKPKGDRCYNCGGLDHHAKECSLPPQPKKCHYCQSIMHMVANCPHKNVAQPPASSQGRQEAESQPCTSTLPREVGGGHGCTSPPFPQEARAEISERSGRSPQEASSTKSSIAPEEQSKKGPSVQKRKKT
Protocol: as §1

[4] = cell without (RRM1) mark, read-out: Msi2 (Ki)
[5] = cell marked (RRM1), read-out: Msi2 (Ki) (RRM1)

Compound	Ki [1]	IC50 [2]	Ki (Msi1)	Ki (Musashi 2 (Msi2); [4])	Ki [3]	Ki (Musashi 2 (Msi2); [5])
CC(C)(C)c1ccc(C(=O)Nc2ccc3sc(/C=C/C(N)=O)cc3c2)cc1 [KH-19C, (E)-N-(2-(3-amino-3-oxoprop-1-en-1-yl)benzo[b]thiophen-5-yl)-4-(tert-butyl)benzamide]	600 nM	8.68 µM	> 20 µM	4.83 µM	> 20 µM	
CC(C)(C)c1ccc(C(=O)Nc2ccc3sc(/C=C/C(=O)NN)cc3c2)cc1 [KH-19E, (E)-4-(tert-butyl)-N-(2-(3-hydrazinyl-3-oxoprop-1-en-1-yl)benzo[b]thiophen-5-yl)benzamide]	190 nM	28.4 µM	> 20 µM	> 20 µM	> 20 µM	
CC(C)(C)c1ccc(C(=O)Nc2ccc3sc(CCC(=O)NO)cc3c2)cc1 [KH-22, 4-(tert-Butyl)-N-(2-(3-(hydroxyamino)-3-oxopropyl)benzo[b]thiophen-5-yl)benzamide]	830 nM	3.48 µM	> 20 µM	> 20 µM	> 20 µM	
CC(C)(C)c1ccc(C(=O)Nc2ccc3sc(CCC(=O)O)cc3c2)cc1 [KH-22A, 3-(5-(4-(tert-Butyl)benzamido)benzo[b]thiophen-2-yl)propanoic acid]	3830 nM	19.8 µM	> 20 µM	> 20 µM	> 20 µM	
CC(C)(C)c1ccc(C(=O)Nc2ccc3sc(CCC(N)=O)cc3c2)cc1 [KH-22C, N-(2-(3-amino-3-oxopropyl)benzo[b]thiophen-5-yl)-4-(tert-butyl)benzamide]	7000 nM	2.87 µM	> 20 µM	> 20 µM	> 20 µM	
CC(C)(C)c1ccc(C(=O)Nc2ccc3sc(CCC(=O)NN)cc3c2)cc1 [KH-22E, 4-(tert-butyl)-N-(2-(3-hydrazinyl-3-oxopropyl)benzo[b]thiophen-5-yl)benzamide]	1060 nM	8.56 µM	> 20 µM	> 20 µM	> 20 µM	
O=C(O)/C=C/c1cc2cc(NC(=O)c3ccc(F)cc3)ccc2s1 [KH-23A, (E)-3-(5-(4-Fluorobenzamido)benzo[b]thiophen-2-yl)acrylic acid]	> 20000 nM		> 20 µM	> 20 µM	> 20 µM	
Cc1ccc(C(=O)Nc2ccc3sc(CCC(=O)NO)cc3c2)cc1 [KH-27, N-(2-(3-(hydroxyamino)-3-oxopropyl)benzo[b]thiophen-5-yl)-4-methylbenzamide]	3720 nM	9.34 µM	> 20 µM	> 20 µM	> 20 µM	
Cc1ccc(C(=O)Nc2ccc3sc(CCC(=O)O)cc3c2)cc1 [KH-27A, 3-(5-(4-Methylbenzamido)benzo[b]thiophen-2-yl)propanoic acid]	> 20000 nM	> 100 µM	> 20 µM	> 20 µM	> 20 µM	
O=C(O)CCc1cc2cc(NC(=O)c3ccc(F)cc3)ccc2s1 [KH-28A, 3-(5-(4-Fluorobenzamido)benzo[b]thiophen-2-yl)propanoic acid]	> 20000 nM		> 20 µM	> 20 µM	> 20 µM	
O=C(CCc1cc2cc(NC(=O)c3ccc(C(F)(F)F)cc3)ccc2s1)NO [KH-29, N-(2-(3-(hydroxyamino)-3-oxopropyl)benzo[b]thiophen-5-yl)-4-(trifluoromethyl)benzamide]	2510 nM	12.4 µM	> 20 µM	> 20 µM	> 20 µM	
NNC(=O)CCc1cc2cc(NC(=O)c3ccc(C(F)(F)F)cc3)ccc2s1 [KH-29E]	3320 nM	71.2 µM	> 20 µM	> 20 µM	> 20 µM	
CC(C)(C)c1cccc(C(=O)Nc2ccc3sc(CCC(=O)NO)cc3c2)c1 [KH-30, 3-(tert-Butyl)-N-(2-(3-(hydroxyamino)-3-oxopropyl)benzo[b]thiophen-5-yl)benzamide]	4980 nM	5.51 µM	> 20 µM	> 20 µM	> 20 µM	
CC(C)(C)c1cccc(C(=O)Nc2ccc3sc(CCC(=O)O)cc3c2)c1 [KH-30A, 3-(5-(3-(tert-butyl)benzamido)benzo[b]thiophen-2-yl)propanoic acid]	> 20000 nM	> 100 µM	> 20 µM	> 20 µM	> 20 µM	
CC(C)(C)c1cccc(C(=O)Nc2ccc3sc(CCC(=O)NN)cc3c2)c1 [KH-30E]	4190 nM	22.7 µM	> 20 µM	> 20 µM	> 20 µM	
CC(C)(C)c1cccc(C(=O)Nc2ccc3sc(/C=C/C(=O)NO)cc3c2)c1 [KH-31, (E)-3-(tert-Butyl)-N-(2-(3-(hydroxyamino)-3-oxoprop-1-en-1-yl)benzo[b]thiophen-5-yl)benzamide]	470 nM	9.74 µM	3.89 µM		3 µM	1.3 µM
CC(C)(C)c1cccc(C(=O)Nc2ccc3sc(/C=C/C(=O)O)cc3c2)c1 [KH-31A, (E)-3-(5-(3-(tert-Butyl)benzamido)benzo[b]thiophen-2-yl)acrylic acid]	2270 nM	95.3 µM	4.6 µM		> 20 µM	1.36 µM
O=C(O)/C=C/c1cc2cc(NC(=O)c3ccc(C(F)(F)F)cc3)ccc2s1 [KH-32A, (E)-3-(5-(4-(Trifluoromethyl)benzamido)benzo[b]thiophen-2-yl)acrylic acid]	1600 nM	> 100 µM	4.36 µM		> 20 µM	1.68 µM
O=C(/C=C/c1cc2cc(NC(=O)c3ccc(C(F)(F)F)cc3)ccc2s1)NO [KH-32]	510 nM	2.62 µM	4.87 µM		> 20 µM	2.64 µM
O=C(O)/C=C/c1cc2cc(NC(=O)c3ccc(S(F)(F)(F)(F)F)cc3)ccc2s1 [KH-33A, (E)-3-(5-(4-(pentafluoro-λ^6-sulfanyl)benzamido)benzo[b]thiophen-2-yl)acrylic acid]	1200 nM	50.1 µM	2.63 µM		> 20 µM	1.03 µM
O=C(CCc1cc2cc(NC(=O)c3ccc(S(F)(F)(F)(F)F)cc3)ccc2s1)NO [KH-34, N-(2-(3-(Hydroxyamino)-3-oxopropyl)benzo[b]thiophen-5-yl)-4-(pentafluoro-X^6-sulfanyl)benzamide]	1530 nM	3.97 µM	> 20 µM	> 20 µM	> 20 µM	
O=C(O)CCc1cc2cc(NC(=O)c3ccc(S(F)(F)(F)(F)F)cc3)ccc2s1 [KH-34A, 3-(5-(4-(pentafluoro-λ^6-sulfanyl)benzamido)benzo[b]thiophen-2-yl)propanoic acid]	5800 nM	48 µM	> 20 µM	> 20 µM	> 20 µM	
CN(C)c1ccc(C(=O)Nc2ccc3sc(C(=O)O)cc3c2)cc1 [KH-58A, 5-(4-(Dimethylamino)benzamido)benzo[b]thiophene-2-carboxylic acid]	2370 nM	> 100 µM			> 20 µM	6.6 µM
O=C(Nc1ccc2sc(C(=O)NO)cc2c1)c1ccccn1 [KH-60, N-(2-(hydroxycarbamoyl)benzo[b]thiophen-5-yl)picolinamide]	3230 nM	4.43 µM		> 20 µM	> 20 µM	
O=C(Nc1ccc2sc(C(=O)O)cc2c1)c1ccccn1 [KH-60A, 5-(Picolinamido)benzo[b]thiophene-2-carboxylic acid hydrochloride]	1140 nM	> 100 µM			> 20 µM	4.6 µM
